Measurements reported in ChEMBL document CHEMBL4483862, “Open-source discovery of chemical leads for next-generation chemoprotective antimalarials” (2018).

System: Plasmodium berghei
Test: Luciferase/luciferin-expressing antifolate-resistant parasites were used to infect a culture of HepG2 cells that were pre-incubated with compounds. Infected hepatocytes emit light due to the luciferase reaction. Assay results are presented as the percent inhibition of light emission compared to control. […]
Type: functional
Conditions: sporozoite; for IC90: read-out: LUCIFERASE INFECTION ASSAY - IC90
[1] = read-out: LUCIFERASE INFECTION ASSAY - IC50

Structure (SMILES) | IC90 [µM] | IC50 [1] [µM] | also measured
O=C(Nc1nc2ccccn2c1C(=O)NC1CCCC1)c1ccc(C(F)(F)F)cc1 | 0.325 | – | IC50 (FFLUC_HILL_SLOPE 11.1, FFLUC_R_SQUARED 0.453, HEPG2TOX_HILL_SLOPE 0.561, HEPG2TOX_R_SQUARED 0.841, PBLUC_HILL_SLOPE 12.2, PBLUC_R_SQUARED 0.531, read-out: LUCIFERASE INFECTION ASSAY - IC50): 0.271 µM
COc1ccc(C(CNC(=O)c2cc(Br)ccc2F)N(C)C)cc1 (centres undefined) | > 10 | > 10 | –
CC1CCCC(NC(=O)CNc2cc(C(F)(F)F)ccc2Oc2ccc(Br)cc2)C1C (centres undefined) | > 10 | > 10 | –
COc1ccc(S(=O)(=O)N2CCSc3cc(Cl)ccc32)cc1 | 3.18 | – | IC50 (HEPG2TOX_HILL_SLOPE 2.85, HEPG2TOX_R_SQUARED 0.925, PBLUC_HILL_SLOPE 20.1, PBLUC_R_SQUARED 0.623, read-out: LUCIFERASE INFECTION ASSAY - IC50): 2.85 µM
Fc1ccc(-c2nc3ccc(Cl)cc3[nH]2)cc1 | > 13.4 | > 13.4 | –
CCOc1ccc(N2CC(C(=O)N3CCCC(c4nc(C)no4)C3)CC2=O)cc1 (centres undefined) | > 10 | > 10 | –
O=C1c2ccccc2C(=Cc2ccsc2)c2ccccc21 | > 10 | – | IC50 (PBLUC_HILL_SLOPE 16.4, 0.310, PBLUC_R_SQUARED 0.161, 0.532, read-out: LUCIFERASE INFECTION ASSAY - IC50): 4.9 µM
N#Cc1ccccc1COc1ccccc1-c1ccccc1 | > 10 | – | IC50 (PBLUC_HILL_SLOPE 3.31, PBLUC_R_SQUARED 0.0977, read-out: LUCIFERASE INFECTION ASSAY - IC50): 7.89 µM
CCOC(=O)c1sc(N)c(C#N)c1COC(=O)C1CCN(S(=O)(=O)c2ccc(C)c(C)c2)CC1 | > 10 | > 10 | –
COc1cc(-c2cnc3cnc(-c4ccsc4)cn23)cc(OC)c1OC | 1.45 | – | IC50 (FFLUC_HILL_SLOPE 0.573, FFLUC_R_SQUARED 0.0155, HEPG2TOX_HILL_SLOPE 1.65, HEPG2TOX_R_SQUARED 0.878, PBLUC_HILL_SLOPE 3.42, PBLUC_R_SQUARED 0.766, read-out: LUCIFERASE INFECTION ASSAY - IC50): 0.761 µM
COc1cccc(-c2nc3ccc(NC(=O)Nc4ccc(Cl)c(C(F)(F)F)c4)cn3n2)c1 | 9.24 | – | IC50 (FFLUC_HILL_SLOPE 14.4, FFLUC_R_SQUARED 0.104, PBLUC_HILL_SLOPE 6.95, PBLUC_R_SQUARED 0.291, read-out: LUCIFERASE INFECTION ASSAY - IC50): 6.74 µM
COc1cc(C)c(Nc2cc(-c3ccc(N(C)C)cc3)ncn2)cc1OC | 0.48 | – | IC50 (HEPG2TOX_HILL_SLOPE 1.1, HEPG2TOX_R_SQUARED 0.88, PBLUC_HILL_SLOPE 3.68, PBLUC_R_SQUARED 0.773, read-out: LUCIFERASE INFECTION ASSAY - IC50): 0.264 µM
Nc1ccc(-c2cn3c(-c4cccc(Cl)c4)cnc3cn2)cn1 | > 10.3 | – | IC50 (PBLUC_HILL_SLOPE 1.1, PBLUC_R_SQUARED 0.459, read-out: LUCIFERASE INFECTION ASSAY - IC50): 5.57 µM
Cn1/c(=N/C(=O)c2ccc(=O)[nH]c2)sc2ccccc21 | > 10 | – | IC50 (HEPG2TOX_HILL_SLOPE 1.38, HEPG2TOX_R_SQUARED 0.749, PBLUC_HILL_SLOPE 1.3, PBLUC_R_SQUARED 0.494, read-out: LUCIFERASE INFECTION ASSAY - IC50): 2.61 µM
CN1CCN(c2ccc(-c3cn4c(-c5ccc6ncccc6c5)cnc4cn3)cc2)CC1 | 7.74 | – | IC50 (HEPG2TOX_HILL_SLOPE 17, HEPG2TOX_R_SQUARED 0.823, PBLUC_HILL_SLOPE 14.3, PBLUC_R_SQUARED 0.731, read-out: LUCIFERASE INFECTION ASSAY - IC50): 6.63 µM
O=C(O/N=C(\Nc1ccc(OC(F)(F)F)cc1)c1c(Cl)cccc1Cl)c1ccccc1C(F)(F)F | > 6.14 | – | IC50 (PBLUC_HILL_SLOPE 1.69, PBLUC_R_SQUARED 0.564, read-out: LUCIFERASE INFECTION ASSAY - IC50): > 6.14 µM
COc1ccccc1N(Cc1ccccc1)S(=O)(=O)c1cccc(C(=O)NC2CC(C)(C)NC(C)(C)C2)c1 | 9.9 | – | IC50 (PBLUC_HILL_SLOPE 145, PBLUC_R_SQUARED 0.235, read-out: LUCIFERASE INFECTION ASSAY - IC50): 9.75 µM
CCN1C(=Cc2cc(C)[n+](CCCN3CCOCC3)c(C)c2)Sc2ccccc21 | 5.67 | – | IC50 (HEPG2TOX_HILL_SLOPE 1.6, HEPG2TOX_R_SQUARED 0.978, PBLUC_HILL_SLOPE 2.92, PBLUC_R_SQUARED 0.557, read-out: LUCIFERASE INFECTION ASSAY - IC50): 2.67 µM
CC(C)Cn1c(-c2ccccc2)nc2c(c(=O)c3ccccc3n2C)c1=O | > 9.18 | – | IC50 (PBLUC_HILL_SLOPE 2.45, PBLUC_R_SQUARED 0.0531, read-out: LUCIFERASE INFECTION ASSAY - IC50): 6.49 µM
COc1ccc(OC)c(CCNc2nc3cnc(-c4cccc(Cl)c4)cc3n2C)c1 | 1.4 | – | IC50 (HEPG2TOX_HILL_SLOPE 5.61, HEPG2TOX_R_SQUARED 0.886, PBLUC_HILL_SLOPE 7.64, PBLUC_R_SQUARED 0.579, read-out: LUCIFERASE INFECTION ASSAY - IC50): 1.05 µM
COc1ccc(NC(C)=O)cc1Nc1ncnc2scc(-c3ccccc3)c12 | > 10 | – | IC50 (PBLUC_HILL_SLOPE 3.37, PBLUC_R_SQUARED 0.17, read-out: LUCIFERASE INFECTION ASSAY - IC50): 9.19 µM

Structure (SMILES) | IC90 [µM] | IC50 [1] [µM] | also measured
Cc1onc(-c2c(F)cccc2Cl)c1C(=O)Nc1ccc(Sc2ccccc2)nc1Sc1ccccc1 | 2.15 | 0.182 | –
C=CCNC(=O)CN(c1ccc(Br)cc1)S(C)(=O)=O | > 9.5 | > 9.5 | –
CCN(CC)S(=O)(=O)c1ccc(OC(C)C)c(NC(=O)c2cc(C3CC3)nc3c2cnn3C(C)C)c1 | > 10 | – | IC50 (FFLUC_HILL_SLOPE 16.5, FFLUC_R_SQUARED 0.255, read-out: LUCIFERASE INFECTION ASSAY - IC50): > 10 µM
O=S(=O)(c1ccccc1)N1CN(c2ccc(N3CCOCC3)cc2)c2nc3ccccc3nc21 | > 10 | > 10 | –
OCc1ccc(-c2cn3c(-c4cccc(OC(F)(F)F)c4)cnc3cn2)cc1 | 4.85 | – | IC50 (PBLUC_HILL_SLOPE 9.63, PBLUC_R_SQUARED 0.631, read-out: LUCIFERASE INFECTION ASSAY - IC50): 3.86 µM
CC(Nc1ccc2c(c1)OC(F)(F)O2)C(=O)Nc1ccc(Cl)cn1 (centres undefined) | > 10 | > 10 | –
CC1CCC2(CC1)NC(=O)N(CC(=O)NCC(F)(F)F)C2=O (centres undefined) | > 10 | > 10 | –
COc1cc(/C=C(\C#N)c2cccn2C)cc(OC)c1OC | > 11.1 | – | IC50 (HEPG2TOX_HILL_SLOPE 8.79, HEPG2TOX_R_SQUARED 0.806, read-out: LUCIFERASE INFECTION ASSAY - IC50): > 11.1 µM
CC(C)(C)NC(=O)NC(=O)COC(=O)CNS(=O)(=O)c1ccc(Br)cc1Cl | > 10 | > 10 | –
Cn1ccc2cc(-c3cn4c(-c5cccc(Cl)c5)cnc4cn3)ccc21 | 2.86 | – | IC50 (HEPG2TOX_HILL_SLOPE 1.09, HEPG2TOX_R_SQUARED 0.945, PBLUC_HILL_SLOPE 1.73, PBLUC_R_SQUARED 0.845, read-out: LUCIFERASE INFECTION ASSAY - IC50): 0.804 µM
CCS(=O)(=O)c1ccc(O)c(NC(=O)Cc2csc(-c3ccsc3)n2)c1 | > 10 | > 10 | –
CN(C)CCNc1cc(-c2ccco2)nc2ccccc12 | 9.18 | – | IC50 (HEPG2TOX_HILL_SLOPE 2.93, HEPG2TOX_R_SQUARED 0.885, PBLUC_HILL_SLOPE 3.51, PBLUC_R_SQUARED 0.62, read-out: LUCIFERASE INFECTION ASSAY - IC50): 4.91 µM
CC(C)(C)c1ccc(-c2csc(NC(=O)c3cnccn3)n2)cc1 | > 10 | – | IC50 (HEPG2TOX_HILL_SLOPE 8.57, HEPG2TOX_R_SQUARED 0.595, PBLUC_HILL_SLOPE 12.7, PBLUC_R_SQUARED 0.201, read-out: LUCIFERASE INFECTION ASSAY - IC50): 9.05 µM
COc1cc(OC)cc(-c2cn3c(-c4cccc(N(C)C)c4)cnc3cn2)c1 | > 8.81 | – | IC50 (PBLUC_HILL_SLOPE 11.4, PBLUC_R_SQUARED 0.677, read-out: LUCIFERASE INFECTION ASSAY - IC50): 7.8 µM
CN(CC1COc2ccccc2O1)c1ccc(C#N)cn1 (centres undefined) | > 10 | – | IC50 (HEPG2TOX_HILL_SLOPE 3.52, HEPG2TOX_R_SQUARED 0.623, PBLUC_HILL_SLOPE 1.89, PBLUC_R_SQUARED 0.914, read-out: LUCIFERASE INFECTION ASSAY - IC50): 5.89 µM
Cc1cc(SCC(=O)NC(C)C2CC3CCC2C3)n2c(nc3ccccc32)c1C#N (centres undefined) | 3.54 | – | IC50 (HEPG2TOX_HILL_SLOPE 6.37, HEPG2TOX_R_SQUARED 0.94, PBLUC_HILL_SLOPE 33.9, PBLUC_R_SQUARED 0.41, read-out: LUCIFERASE INFECTION ASSAY - IC50): 3.32 µM
CCOC(=O)c1nc(N(CCc2ccccc2)C(=O)c2cnc3c(cnn3C(C)C)c2)sc1C | > 10 | > 10 | –
CCOC(=O)c1c(C)[nH]c(C(=O)COC(=O)c2nc(-c3ccccc3)n(-c3ccccc3)n2)c1C | > 10 | > 10 | –
O=C1C(=O)N(Cc2cc3c(cc2Cl)OCO3)c2ccc(Br)cc21 | > 8.36 | – | IC50 (FFLUC_HILL_SLOPE 13.4, FFLUC_R_SQUARED 0.714, HEPG2TOX_HILL_SLOPE 8.11, HEPG2TOX_R_SQUARED 0.359, PBLUC_HILL_SLOPE 6.2, PBLUC_R_SQUARED 0.151, read-out: LUCIFERASE INFECTION ASSAY - IC50): 7.48 µM
COCOc1ccc(-c2cc(-c3cc(C)c(O)c(C)c3)cnc2N)cc1 | 6.77 | 4.46 | –
O=C(Nc1cccc2c[nH]nc12)c1cnc(OCC(F)(F)F)c(Cl)c1 | 5.53 | – | IC50 (PBLUC_HILL_SLOPE 2.15, PBLUC_R_SQUARED 0.641, read-out: LUCIFERASE INFECTION ASSAY - IC50): 1.99 µM
